Measurements: patent US20260083864A1, “CONTRAST AGENTS FOR USE IN DIAGNOSTIC COMPUTED TOMOGRAPHY IMAGING” (Bayer Aktiengesellschaft, priority 2022, published 2026)

Legend:
[1] = Water solubility in aqueous buffer; details: aqueous buffer 10 mM Tris-HCl, pH 7.4, 20° C.
Method: The solid compounds were added stepwise to the buffer solution. More substance is added once all the suspended material is dissolved until an equilibrium between undissolved and dissolved substance is reached. The suspension was mixed using a shaker (Heidolph Reax 2000) and treated 5 min in an ultrasound bath (Bandelin, Sonorex Super RK255H).

OATP1B1 = biological target: T1, OATP1B1 (Homo sapiens, UniProt Q9Y6L6); assay: Uptake into stable transfected OATP1B1 HEK 293 cells; assay type: cell-based; details: for Uptake into OATP1B1-HEK 293 cells: 40 min incubation, relative to RC1 (Gd-EOB-DTPA); for Inhibition Rifampicine: uptake into OATP1B1-HEK 293 cells
T1 sequence (Q9Y6L6 1-691): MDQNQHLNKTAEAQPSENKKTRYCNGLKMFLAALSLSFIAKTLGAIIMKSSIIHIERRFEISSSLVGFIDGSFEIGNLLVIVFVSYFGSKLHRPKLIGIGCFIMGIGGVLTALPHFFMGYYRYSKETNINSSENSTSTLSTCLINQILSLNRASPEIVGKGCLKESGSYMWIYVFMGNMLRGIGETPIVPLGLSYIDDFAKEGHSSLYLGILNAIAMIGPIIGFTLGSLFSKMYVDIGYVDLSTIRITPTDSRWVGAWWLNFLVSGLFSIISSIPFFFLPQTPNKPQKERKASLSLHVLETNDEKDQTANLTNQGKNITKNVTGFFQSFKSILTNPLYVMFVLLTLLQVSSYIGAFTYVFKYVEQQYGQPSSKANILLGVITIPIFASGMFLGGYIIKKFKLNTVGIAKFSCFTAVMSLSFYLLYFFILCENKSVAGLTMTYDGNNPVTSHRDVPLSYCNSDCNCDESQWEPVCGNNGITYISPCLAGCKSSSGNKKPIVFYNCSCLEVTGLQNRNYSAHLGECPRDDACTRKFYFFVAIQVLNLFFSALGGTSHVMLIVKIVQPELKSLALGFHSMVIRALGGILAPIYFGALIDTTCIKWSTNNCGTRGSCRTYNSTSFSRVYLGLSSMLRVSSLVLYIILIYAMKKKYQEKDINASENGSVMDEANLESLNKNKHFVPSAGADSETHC
Method: (§1) Cryopreserved cells were shortly thawed in water bath and diluted in 10 mL warm culture medium (37° C.). After medium change the cells were grown for 3d in a 25 cm^2 cell culture flask. After 3 to 5d the cells were transferred into 75 cm^2 flasks. […] All test items were prepared in transport buffer at a final concentration of 100 M from stock solutions (180 to 500 mM concentration). The OATP1B1 HEK 293 cells were incubated with test solutions (test item in transport buffer 500 L) for 40 min on a thermoshaker without shaking (PHMP, Fa. Grant Bio). Triplicates were performed for each test item. After incubation the cells were washed with 2 mL of cold PBS (+) buffer (Dulbeccos PBS+, Fa. Gibco). […] As a reference standard Gd-EOB-DTPA (gadoxetate) is used in the same well plate.

OATP1B3 = biological target: T2, OATP1B3 (Homo sapiens, UniProt Q9NPD5); assay: Uptake into stable transfected OATP1B3 HEK 293 cells; assay type: cell-based; details: for Uptake into OATP1B3-HEK 293 cells: 40 min incubation, relative to RC1 (Gd-EOB-DTPA); for Inhibition Rifampicine: uptake into OATP1B3-HEK 293 cells
T2 sequence (Q9NPD5 1-702): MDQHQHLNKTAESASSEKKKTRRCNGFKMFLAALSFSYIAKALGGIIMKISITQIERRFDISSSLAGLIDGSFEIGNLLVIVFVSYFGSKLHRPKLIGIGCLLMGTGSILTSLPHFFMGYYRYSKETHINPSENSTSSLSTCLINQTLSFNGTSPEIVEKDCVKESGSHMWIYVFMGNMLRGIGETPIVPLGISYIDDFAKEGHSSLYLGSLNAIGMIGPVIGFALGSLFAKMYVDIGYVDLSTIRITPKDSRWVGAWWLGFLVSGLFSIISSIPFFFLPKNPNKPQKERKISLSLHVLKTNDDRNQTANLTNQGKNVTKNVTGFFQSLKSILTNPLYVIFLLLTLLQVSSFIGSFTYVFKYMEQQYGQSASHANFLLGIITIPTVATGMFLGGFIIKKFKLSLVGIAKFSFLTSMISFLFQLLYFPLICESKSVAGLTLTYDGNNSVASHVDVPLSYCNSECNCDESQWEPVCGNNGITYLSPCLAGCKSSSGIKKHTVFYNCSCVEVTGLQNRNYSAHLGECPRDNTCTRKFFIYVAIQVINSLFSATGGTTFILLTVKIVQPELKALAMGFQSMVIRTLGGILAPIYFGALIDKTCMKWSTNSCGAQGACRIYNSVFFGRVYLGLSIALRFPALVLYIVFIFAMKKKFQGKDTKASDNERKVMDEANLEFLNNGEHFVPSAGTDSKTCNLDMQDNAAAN
Method: as §1, with “100 µM” for “100 M”, “The OATP1B3” for “The OATP1B1”, “500 μL)” for “500 L)”

[2] = Partition coefficient (log P butanol/buffer); assay type: physicochemical; details: 1-butanol / 50 mM Tris-HCl, pH 7.4, room temperature
[3] = system: freshly isolated rat hepatocytes; assay: Uptake into freshly isolated rat hepatocytes; details: for Uptake rat hepatocytes: 100 μmol Gd/L, 10 min, 37° C., relative to RC1 (Gd-EOB-DTPA); for Inhibition Rifampicine: rat hepatocyte uptake, test item and Rifampicine 1:1, each 100 μM
[4] = Relaxivity measurements at 1.41 T in water; assay type: physicochemical; details: 37° C., normalized to Gd
Method: (§2) Relaxivity measurements at 1.41 T were performed using a MiniSpec mq60 spectrometer (Bruker Analytik, Karlsruhe, Germany) operating at a resonance frequency of 60 MHz and a temperature of 37° C. The T1 relaxation times were determined using the standard inversion recovery (IR) method with a fixed relaxation delay of at least 5×T1. The variable inversion time (TI) was calculated automatically by the standard software of the MiniSpec mq60 (8 steps). The T2 measurements were performed by using a Carr-Purcell-Meiboom-Gill (CPMG) pulse sequence, applying a relaxation delay of at least 5×T1.
Each relaxivity measurement was performed using three different Gd concentrations (3 concentrations between 0.05 and 2 mM). […] Human plasma preparation: For each experiment fresh blood was taken from a volunteer using 10 mL citrate-tubes (Sarstedt S-Monovette 02.1067.001, 10 mL, Citrate). The 10 mL citrate-tubes were carefully inverted 10 times to mix blood and anticoagulant and centrifuged for 15 min at 1811 g at RT (Eppendorf, Centrifuge 5810R).
(§3) The relaxivities n (where i=1, 2) were calculated based on the measured relaxation rates Ri in water and plasma: […]

[5] = Relaxivity measurements at 1.41 T in human plasma; assay type: physicochemical; details: 37° C., normalized to Gd
Method: as §2, with “The” for “Relaxivity measurements at 1.41 T were performed using a MiniSpec mq60 spectrometer (Bruker Analytik, Karlsruhe, Germany) operating at a resonance frequency of 60 MHz and a temperature of 37° C. The”
Each relaxivity measurement was performed using three different Gd concentrations (3 concentrations between 0.05 and 2 mM).
as §3

Compound | Solubility [1] | Uptake into OATP1B1-HEK 293 cells (OATP1B1) | Inhibition Rifampicine (OATP1B1) | Uptake into OATP1B3-HEK 293 cells (OATP1B3) | Inhibition Rifampicine (OATP1B3) | Log P (partition coefficient butanol/buffer) [2] | Uptake rat hepatocytes [3] | Inhibition Rifampicine [3] | r1 water [4] | r1 human plasma [5]
CCCCOc1ccc(CCCC[C@@H](C(=O)O)N2CCN([C@@H](CO)C(=O)[O-])CCN([C@@H](CO)C(=O)[O-])CCN([C@@H](CO)C(=O)[O-])CC2)cc1.[Gd+3] [Example 9, gadolinium (2S,2′S,2″S)-2,2′,2″-{10-[(1S)-5-(4-butoxyphenyl)-1-carboxypentyl]-1,4,7,10-tetraazacyclododecane-1,4,7-triyl}tris(3-hydroxypropanoate)] | 2 mM | 498 % of RC1 | 73 % inhibition | 124 % of RC1 | 95 % inhibition | 0.26 | 54 % of RC1 | 46 % inhibition |  | 
CCOCCOCCOCCOc1ccc(C[C@@H](C(=O)O)N2CCN(CC(=O)[O-])CCN(CC(=O)[O-])CCN(CC(=O)[O-])CC2)cc1.[Gd+3] [Example 11, gadolinium 2,2′,2″-{10-[(1S)-1-carboxy-2-(4-{2-[2-(2-ethoxyethoxy)ethoxy]ethoxy}phenyl)ethyl]-1,4,7,10-tetraazacyclododecane-1,4,7-triyl}triacetate] |  | 154 % of RC1 | 40 % inhibition | 16 % of RC1 | 73 % inhibition | −1.68 | 39 % of RC1 | 93 % inhibition | 4.3 L/mmol/s | 6.3 L/mmol/s
CCOCCOCCOCCOc1ccc(C[C@H](C(=O)O)N2CCN(CC(=O)[O-])CCN(CC(=O)[O-])CCN(CC(=O)[O-])CC2)cc1.[Gd+3] [Example 12, gadolinium 2,2′,2″-{10-[(1R)-1-carboxy-2-(4-{2-[2-(2-ethoxyethoxy)ethoxy]ethoxy}phenyl)ethyl]-1,4,7,10-tetraazacyclododecane-1,4,7-triyl}triacetate] |  | 86 % of RC1 | 0 % inhibition | 24 % of RC1 | 87 % inhibition | −1.68 | 53 % of RC1 | 97 % inhibition | 4.3 L/mmol/s | 6.6 L/mmol/s
CCOc1ccc(CCCC[C@@H](C(=O)O)N2CCN(CC(=O)[O-])CCN(CC(=O)[O-])CCN(CC(=O)[O-])CC2)cc1.[Gd+3] [Example 27, gadolinium 2,2′,2″-{10-[(1S)-1-carboxy-5-(4-ethoxyphenyl)pentyl]-1,4,7,10-tetraazacyclo-dodecane-1,4,7-triyl}triacetate] | >9 mM | 284 % of RC1 | 93 % inhibition | 24 % of RC1 | 96 % inhibition | −0.41 | 69 % of RC1 | 98 % inhibition |  | 
CCOCCOCCOCCOc1ccc(C[C@@H](C(=O)O)N2CCN(CC(=O)[O-])CCN(CC(=O)[O-])CCN(CC(=O)[O-])CC2)c(OCCOCCOCCOCC)c1.[Gd+3] [Example 40, gadolinium 2,2′,2″-{10-[(1S)-2-(2,4-bis {2-[2-(2-ethoxyethoxy)ethoxy]ethoxy}phenyl)-1-carboxyethyl]-1,4,7,10-tetraazacyclododecane-1,4,7-triyl}triacetate] |  |  |  |  |  | −1.43 | 20 % of RC1 | 88 % inhibition | 5.4 L/mmol/s | 7.3 L/mmol/s
CCOCCOCCOc1ccc(CCC[C@@H](C(=O)O)N2CCN([C@H](CO)C(=O)[O-])CCN([C@H](CO)C(=O)[O-])CCN([C@@H](CO)C(=O)[O-])CC2)cc1.[Gd+3] [Example 49, gadolinium (2R,2′R)-2,2′-{7-[(1S)-1-carboxy-4-{4-[2-(2-ethoxyethoxy)ethoxy]phenyl}butyl]-10-[(1S)-1-carboxylato-2-hydroxyethyl]-1,4,7,10-tetraazacyclododecane-1,4-diyl}bis(3-hydroxypropanoate)] | >18 mM |  | 71 % inhibition |  | 94 % inhibition |  |  |  |  | 
CCOCCOCCOc1ccc(CCC[C@@H](C(=O)O)N2CCN([C@H](CO)C(=O)[O-])CCN([C@@H](CO)C(=O)[O-])CCN([C@@H](CO)C(=O)[O-])CC2)cc1.[Gd+3] [Example 50, gadolinium (2S,2'S)-2,2′-{7-[(1S)-1-carboxy-4-{4-[2-(2-ethoxyethoxy)ethoxy]phenyl}butyl]-10-[(1R)-1-carboxylato-2-hydroxyethyl]-1,4,7,10-tetraazacyclododecane-1,4-diyl}bis(3-hydroxypropanoate)] | >19 mM |  | 84 % inhibition |  | 93 % inhibition |  |  |  |  | 
